Assay [1] relates to Raji MEK DD cells. Nature of the assay: Proliferation of Raji MEK DD cells (CCK-8). Conditions: 72 h, CCK-8, compared with Raji. Format: cell-based, human. How it is done:
Figure 5 Inhibition of Erk1/2 phosphorylation by X-370 contributed to its antiproliferative activity (A-C) X-370 inhibited Erk1/2 phosphorylation via PI3K-PDK1-MEK1/2 cascade but not the PI3K-Gab1 positive feedback loop. (A) Raji and SU-DHL-6 cells were exposed to 1 μM X370 for 3 h and protein fraction from cellular membrane was separated using Native Membrane Protein Extraction Kit and probed. WCL: whole cell lysate. (B) Inhibition of PDK1 or MEK1/2 abrogated Erk1/2 phosphorylation. Cells were treated with pharmacological inhibitors of Raf (AZ 628, PLX4032), MEK1/2 (AZD6244), p90RSK (BI-D1870), PI3Kδ (X-370), PDK1 (BX-912), Akt (MK-2206), mTOR (AZD8055) or mTORC1 (Rapamycin) respectively and indicated proteins were detected. […] Raji cells were treated with 1 μM X370 for 1 h and cell lysates were immunoprecipitated with anti-PDK1 antibody and indicated proteins were detected. […] (E) Raji and Raji MEK DD cells were treated with X-370 for 72 h and cell proliferation was detected by CCK-8 assay. (F) Raji MEK DD cells were treated with X-370 and AZD6244 and cell proliferation was detected by CCK-8 assay. Data were show as mean ± SD of three independent experiments. *: p < 0.05 determined by t-tests at each data point. […]
luciferase. Raji cells expressing MEK DD or luciferase were incubated with 1 μM AZD6244 or DMSO control respectively for 72 h, and then cell viability were assessed by CCK-8 reagent. […]

Assay [2] has as its system Raji MEK DD cells. Nature of the assay: Erk1/2 phosphorylation in Raji cells expressing MEK DD (Western blot). Format: cell-based, human. Conditions: 1 h. As for the experimental part: Figure 5 Inhibition of Erk1/2 phosphorylation by X-370 contributed to its antiproliferative activity (A-C) X-370 inhibited Erk1/2 phosphorylation via PI3K-PDK1-MEK1/2 cascade but not the PI3K-Gab1 positive feedback loop. (A) Raji and SU-DHL-6 cells were exposed to 1 μM X370 for 3 h and protein fraction from cellular membrane was separated using Native Membrane Protein Extraction Kit and probed. WCL: whole cell lysate. (B) Inhibition of PDK1 or MEK1/2 abrogated Erk1/2 phosphorylation. Cells were treated with pharmacological inhibitors of Raf (AZ 628, PLX4032), MEK1/2 (AZD6244), p90RSK (BI-D1870), PI3Kδ (X-370), PDK1 (BX-912), Akt (MK-2206), mTOR (AZD8055) or mTORC1 (Rapamycin) respectively and indicated proteins were detected. (C) X-370 disrupted the association between PDK1 and MEK1/2. Raji cells were treated with 1 μM X370 for 1 h and cell lysates were immunoprecipitated with anti-PDK1 antibody and indicated proteins were detected. WCL: whole cell lysate. […] (E) Raji and Raji MEK DD cells were treated with X-370 for 72 h and cell proliferation was detected by CCK-8 assay. (F) Raji MEK DD cells were treated with X-370 and AZD6244 and cell proliferation was detected by CCK-8 assay. Data were show as mean ± SD of three independent experiments. *: p < 0.05 determined by t-tests at each data point. […]
In general terms: In western blotting, separated proteins are transferred to a membrane and probed.

With `O=C(N1CCCC1)N1CCC(n2cnc3c(-n4c(C(F)F)nc5ccccc54)nc(N4CCOCC4)nc32)CC1` [X-370], in the assay on Raji MEK DD cells [1], the “effect of MEK DD expression on inhibition of viability” value is listed as “attenuated inhibition of viability”. Moreover, in the assay on Raji MEK DD cells [2], the Erk1/2 phosphorylation result is recorded as “failed to inhibit”.
